In ChEMBL document CHEMBL1201862, “PubChem BioAssay data set” (2004) one finds IC50 data, which are given here for two compounds.

The structures appear in SMILES notation. The source made the active and inactive calls. Rule as the data show it: actives have a measured IC50 and inactives only a lower limit.

In this assay the target is Envelope glycoprotein gp160 (Human immunodeficiency virus 1, UniProt Q6QLK5). The assay is described as follows: inhibitors of HIV fusion peptide binding, primary screen, biochemical, uHTS, fluorescence dequenching (AID 1986).
Envelope glycoprotein gp160, sequence (Q6QLK5 whole entry, the tested form may be a part): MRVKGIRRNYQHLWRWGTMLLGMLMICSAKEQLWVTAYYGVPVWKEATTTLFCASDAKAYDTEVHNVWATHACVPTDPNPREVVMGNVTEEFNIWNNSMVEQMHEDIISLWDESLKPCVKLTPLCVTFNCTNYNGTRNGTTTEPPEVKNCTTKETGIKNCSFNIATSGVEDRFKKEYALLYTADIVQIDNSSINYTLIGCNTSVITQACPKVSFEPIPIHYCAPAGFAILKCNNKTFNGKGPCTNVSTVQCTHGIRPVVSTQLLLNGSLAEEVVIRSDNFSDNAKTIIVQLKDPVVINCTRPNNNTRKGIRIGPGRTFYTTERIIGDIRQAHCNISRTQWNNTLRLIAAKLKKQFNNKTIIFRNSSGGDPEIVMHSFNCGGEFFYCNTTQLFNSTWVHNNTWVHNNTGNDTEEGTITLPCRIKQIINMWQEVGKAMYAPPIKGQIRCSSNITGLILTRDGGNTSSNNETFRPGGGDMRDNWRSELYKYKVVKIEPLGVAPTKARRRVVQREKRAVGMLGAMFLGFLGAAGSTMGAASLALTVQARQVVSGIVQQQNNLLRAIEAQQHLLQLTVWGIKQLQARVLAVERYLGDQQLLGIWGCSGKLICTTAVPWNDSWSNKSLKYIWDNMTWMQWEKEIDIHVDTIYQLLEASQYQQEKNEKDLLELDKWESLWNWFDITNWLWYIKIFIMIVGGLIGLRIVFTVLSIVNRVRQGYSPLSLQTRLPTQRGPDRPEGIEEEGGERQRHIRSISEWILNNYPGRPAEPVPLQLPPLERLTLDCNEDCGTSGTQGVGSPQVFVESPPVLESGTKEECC

Usually IC50 stands for the concentration needed to halve the response being measured. In the case of `CC1=C(C(=O)Nc2ccccc2)C(c2ccc(Cl)cc2)n2c(s/c(=C/c3cccc(OCC(=O)O)c3)c2=O)=N1` (configuration not stated), the 50% inhibitory concentration (IC50) is 16.8 µM (active).
The figure for `COc1ccc(-c2nn(-c3ccccc3)cc2/C=C\C(=O)Nc2ccc(C(=O)O)cc2)cc1` is 18.3 µM (active).
